A short description of series [1]: Half life in Wistar rat at 100 mg/kg, po. The settings on record: in vivo. The class given is ADME, organism-based.
A further series has as its target T1, Bile acid receptor (Homo sapiens, UniProt Q96RI1).
T1 sequence (Q96RI1 whole entry): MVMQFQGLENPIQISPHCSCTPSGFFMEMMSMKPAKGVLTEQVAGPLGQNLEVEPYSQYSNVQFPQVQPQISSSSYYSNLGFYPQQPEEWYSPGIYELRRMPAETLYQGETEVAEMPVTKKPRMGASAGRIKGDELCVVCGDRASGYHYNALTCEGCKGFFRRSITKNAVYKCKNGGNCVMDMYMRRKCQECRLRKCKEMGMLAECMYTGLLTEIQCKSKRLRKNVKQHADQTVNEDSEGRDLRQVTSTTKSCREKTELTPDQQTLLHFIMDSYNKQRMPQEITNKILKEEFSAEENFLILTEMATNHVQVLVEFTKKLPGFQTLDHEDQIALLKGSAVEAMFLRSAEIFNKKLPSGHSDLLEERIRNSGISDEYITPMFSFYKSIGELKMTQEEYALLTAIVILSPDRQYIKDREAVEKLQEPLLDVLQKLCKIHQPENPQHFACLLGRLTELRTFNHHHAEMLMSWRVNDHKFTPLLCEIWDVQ
As to the kind of experiment: Agonist activity at FXR transfected in human HEK293T cells o-expressing pGL3/hBSEP/luc incubated for 24 hrs by Steady-Glo reagent based luciferase reporter gene assay. The series is classed as cell-based.

Series [2] is described as follows: Permeability of the compound by PAMPA. The class given is ADME.
Series [3] in a line: Clearance in mouse at 3 mg/kg, iv. The class given is ADME, organism-based. The settings on record: in vivo.
Series [4] in a line: Ratio of AUC in liver to plasma in Wistar rat liver at 10 mg/kg, po. The series is classed as ADME, organism-based. The settings on record: read-out: Ratio AUC.
Series [5] addresses T2, G-protein coupled bile acid receptor 1 (Homo sapiens) (UniProt Q8TDU6).
T2 sequence (whole entry): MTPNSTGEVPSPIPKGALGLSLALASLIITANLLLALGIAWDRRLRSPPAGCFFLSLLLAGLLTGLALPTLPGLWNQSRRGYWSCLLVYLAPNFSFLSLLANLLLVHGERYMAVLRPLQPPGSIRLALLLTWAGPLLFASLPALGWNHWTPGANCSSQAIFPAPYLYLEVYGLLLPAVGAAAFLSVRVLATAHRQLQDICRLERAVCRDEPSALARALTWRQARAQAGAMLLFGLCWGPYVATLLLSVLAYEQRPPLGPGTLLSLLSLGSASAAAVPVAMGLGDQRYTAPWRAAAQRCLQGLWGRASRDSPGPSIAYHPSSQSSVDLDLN
Put plainly: Agonist activity at human GPBAR1 expressed in Jurkat cells assessed as increase in intracellular cAMP level incubated for 1 hr by fluorescence based assay relative to control. The class given is functional, cell-based.

Series [6] is described as follows: Cmax in Wistar rat at 30 mg/kg, po. The series is classed as ADME, organism-based. Also noted: dose 30 mg/kg, route oral. The settings on record: in vivo.
The species named for series [7] is Mus musculus. Put plainly: Anti Steato-hepatitic activity in C57BL/6J mouse STAM model assessed as change in Aldh1l2 gene level in liver. The class given is functional, organism-based.
Series [8] is filed under the species Mus musculus. Put plainly: Anti Steato-hepatitic activity in C57BL/6J mouse STAM model assessed as change in Nr0b2 gene level in liver. The series is classed as functional, organism-based.
The nature of series [9]: AUC in Wistar rat at 10 mg/kg, po. The class given is ADME, organism-based. The settings on record: in vivo.
Series [10] deals with T3, Bile acid receptor (Rattus norvegicus) (UniProt Q62735).
T3 sequence (whole entry): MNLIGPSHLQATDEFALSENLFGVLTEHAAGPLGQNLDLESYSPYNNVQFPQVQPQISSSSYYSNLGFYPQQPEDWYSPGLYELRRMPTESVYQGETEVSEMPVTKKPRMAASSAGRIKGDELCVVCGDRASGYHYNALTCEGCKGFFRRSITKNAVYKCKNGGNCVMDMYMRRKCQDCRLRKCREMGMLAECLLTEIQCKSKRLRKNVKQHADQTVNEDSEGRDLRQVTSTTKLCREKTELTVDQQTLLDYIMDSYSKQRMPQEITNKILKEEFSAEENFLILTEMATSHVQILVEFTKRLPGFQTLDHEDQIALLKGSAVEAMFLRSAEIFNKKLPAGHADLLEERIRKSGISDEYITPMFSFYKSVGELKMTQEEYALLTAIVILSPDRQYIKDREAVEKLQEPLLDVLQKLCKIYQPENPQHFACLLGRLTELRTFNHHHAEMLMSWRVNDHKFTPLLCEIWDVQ
As to the kind of experiment: Agonist activity at FXR in rat primary hepatocytes assessed as increase in BSEP mRNA level incubated for 24 hrs by qRT-PCR analysis relative to DMSO. The class given is cell-based. (In general: Quantitative PCR measures a nucleic acid by following its amplification.)

The nature of series [11]: Half life in Wistar rat at 30 mg/kg, po. The class given is ADME, organism-based. The settings on record: in vivo.
Series [12] concerns Rattus norvegicus. Put plainly: In-vivo agonist activity at FXR in orally dosed Han Wistar rat assessed as upregulation of SHP mRNA level in liver administered via oral gavage once daily for 14 days measured post last dose by qRT-PCR analysis. The class given is functional, organism-based.
Series [13] deals with Rattus norvegicus. As to the kind of experiment: In-vivo agonist activity at FXR in Han Wistar rat assessed as upregulation of FGF15 protein level in serum at 1.5 mg/kg administered via oral gavage once daily for 14 days measured 10 hrs post last dose relative to control. The class given is functional.
Series [14] in a line: Oral bioavailability in rabbit at 10 mg/kg. The class given is ADME, organism-based, Oryctolagus cuniculus. The settings on record: in vivo.
A short description of series [15]: Volume of distribution at steady state in rabbit at 5 mg/kg, iv. Particulars: in vivo, read-out: Vdss. The series is classed as ADME, organism-based, Oryctolagus cuniculus.
For series [16], the system named is Rattus norvegicus. As to the kind of experiment: In-vivo agonist activity at FXR in orally dosed Han Wistar rat assessed as upregulation of FGF15 mRNA level in ileum administered via oral gavage once daily for 14 days measured post last dose by qRT-PCR analysis. The class given is functional, organism-based.
Series [17] relates to Mus musculus. As to the kind of experiment: Anti Steato-hepatitic activity in STZ/HFD induced oral dosed C57BL/6J mouse STAM model assessed as reduction in macrovesicular fat deposition administered via oral gavage once daily for 3 weeks and measured on 9 week by H and E staining based assay. The series is classed as functional, organism-based.
The nature of series [18]: Oral bioavailability in Wistar rat at 300 mg/kg. The class given is ADME, organism-based. Particulars: in vivo.
The target of series [19] is T4, Peroxisome proliferator-activated receptor gamma (Homo sapiens, UniProt P37231).
T4 sequence (P37231 whole entry): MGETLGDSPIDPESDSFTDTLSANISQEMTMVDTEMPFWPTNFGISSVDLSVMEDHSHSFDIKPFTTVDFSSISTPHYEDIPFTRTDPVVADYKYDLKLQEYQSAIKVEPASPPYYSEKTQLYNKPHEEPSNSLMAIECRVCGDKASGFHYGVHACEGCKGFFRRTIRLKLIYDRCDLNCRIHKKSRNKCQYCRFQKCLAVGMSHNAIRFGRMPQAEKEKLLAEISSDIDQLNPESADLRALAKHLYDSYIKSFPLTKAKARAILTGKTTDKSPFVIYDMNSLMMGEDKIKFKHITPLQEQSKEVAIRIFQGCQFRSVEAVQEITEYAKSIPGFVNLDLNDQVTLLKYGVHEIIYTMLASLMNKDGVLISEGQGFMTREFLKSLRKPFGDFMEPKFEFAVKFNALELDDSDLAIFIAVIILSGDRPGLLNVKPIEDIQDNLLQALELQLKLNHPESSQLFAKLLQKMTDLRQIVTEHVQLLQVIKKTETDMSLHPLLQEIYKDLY
Put plainly: Agonist activity at PPARgamma (unknown origin) incubated for 2 hrs by TR-FRET assay. (In general: In TR-FRET formats the signal depends on donor and acceptor labels being close together.)

As a reminder, the half-life is how long it takes for the measured level to halve. Low values mean rapid decline, high ones slow decline. As usually defined, the EC50 is the concentration that produces a half-maximal response. In general, clearance refers to a measure of how efficiently the substance is removed, as volume per time. Broadly, the Cmax is the peak of the concentration-time curve. Broadly, the AUC is the area under the concentration-time curve, a measure of exposure. A higher AUC goes with more exposure. As a reminder, the bioavailability is dose-corrected exposure relative to a reference, in per cent. Low readings indicate little systemic uptake, high ones much systemic uptake.

Calls of active or inactive are those of the source. The rule behind the calls is not given here.

Take `Cn1nc(C(=O)N(Cc2ccccc2)Cc2ccc(C(=O)O)cc2)c2c1-c1cc(Cl)ccc1OC2` [NIDUFEXOR]: the values for the half-life in series [1] and in series [11] were 5.6 h and 6.3 h, respectively. Further, the EC50 at Bile acid receptor is 0.032 µM; in series [19], greater than 30 µM. The permeability in series [2] is on record as 94%. In series [3], the clearance is 9.8 mL/min/kg. For the same molecule, the Kp in series [4] amounted to 1.5. In addition, in [5], the Efficacy was 13%. Also, the concentration in [6] peaked (Cmax) at 28.1 µM. The outcome in the series listed under Mus musculus [7] and in the series filed under Mus musculus [8] was Active. Besides, the AUC in series [9] is 25.4 µM·h. Further, the values for the fold change (FC) (in [10]; in the series with Rattus norvegicus [13]) were 24 and 3.5, respectively. Also, the Activity result in the series with Rattus norvegicus [12], in the series with Rattus norvegicus [16] and in the series on Mus musculus [17] was “Dose-dependent effect” each time. Moreover, the figures for the bioavailability in [14] and in series [18] were 52% and 72%, respectively. Besides, the Vd in series [15] came out at 0.6 L/kg.
